Structures are written as SMILES.

Results on three compounds are retold here after patent US20060014738A1, “Fungicidal combination of active substances” (priority 2002, published 2006).

The assay relates to Pyrenophora teres. Kind of assay: Pyrenophora teres test (barley)/curative. Particulars: curative, application rate of active compound 100 g/ha, evaluation 7 days after inoculation, 0% = control, 100% = no infection. Type of assay: in vivo. As to the method:
Pyrenophora teres Test (Barley)/Curative [table] To produce a suitable preparation of active compound, 1 part by weight of active compound or active compound combination is mixed with the stated amount of solvent and emulsifier, and the concentrate is diluted with water to the desired concentration. To test for curative activity, young plants are sprayed with a conidia suspension of Pyrenophora teres. The plants remain in an incubation cabin at 20° C. and 100% relative atmospheric humidity for 48 hours. The plants are then sprayed with the preparation of active compound at the stated application rate. The plants are placed in a greenhouse at a temperature of about 20° C. and a relative atmospheric humidity of about 80%. Evaluation is carried out 7 days after the inoculation. 0% means an efficacy which corresponds to that of the control, whereas an efficacy of 100% means that no infection is observed.
As for `CON=C(C(=O)OC)c1ccccc1CO/N=C(\C)c1cccc(C(F)(F)F)c1` [(I), 2-[α-{[(α-methyl-3-trifluoromethylbenzyl)imino]oxy}-o-tolyl]glyoxylic acid methyl ester O-methyl oxime], the Efficacy in % was 56%.

On to `OC(Cc1ccccc1Cl)(Cn1nc[nH]c1=S)C1(Cl)CC1` (stereo not drawn) [(II), 2-[2-(1-chlorocyclopropyl)-3-(2-chlorophenyl)-2-hydroxypropyl]-2,4 dihydro[1,2,4]triazole-3-thione], for which the Efficacy in % was found to be 56%.

With `CON=C(C1=NOCCO1)c1ccccc1Oc1ncnc(Oc2ccccc2Cl)c1F` [(III), 3-[1-[2-(4-<2-chlorophenoxy>-5-fluoropyrimid-6-yloxy)phenyl]-1-(methox-imino)methyl]-5,6-dihydro-1,4,2-dioxazine], the Efficacy in % was determined as 67%.
